Experimental findings from patent publication US20160333006A1, “ARYL LACTA KINASE INHIBITORS” (Bristol-Myers Squibb Company, priority 2014, published 2016) are described below.

What is called IC50 is the concentration at which inhibition is half-maximal.

SMILES strings stand for the structures.

For assay [1], the target named is T1, GST-Xa-hAAK1 (Homo sapiens, UniProt Q2M2I8).
T1 construct: made in house
Nature of the assay: AAK1 kinase assay. In kind it is biochemical. The following applies: ATP 22 μM. As for the experimental part:
The assays were performed in U-bottom 384-well plates. […] The reactions were initiated by the combination of bacterially expressed, GST-Xa-hAAK1 with substrates and test compounds. The reactions were incubated at room temperature for 3 hours and terminated by adding 60 μl of 35 mM EDTA buffer to each sample. The reactions were analyzed on the Caliper LabChip 3000 (Caliper, Hopkinton, Mass.) by electrophoretic separation of the fluorescent substrate and phosphorylated product. […] Compounds were dissolved at 10 mM in dimethylsulfoxide (DMSO) and evaluated at eleven concentrations. IC50 values were derived by non-linear regression analysis.

For assay [2], the target named is T2, AAK1 (full length human) in HEK293F cells (Homo sapiens, UniProt Q2M2I8).
T2 construct: fused on or other part: HA tag (AAK1/HA in pIRES vector)
Nature of the assay: HEK281 cell-based assay (phospho-mu2 Western blot in transfected HEK293F cells). The following applies: 3 hours. As for the experimental part:
On day one, cells were plated on a 10 cm dish so that they are ˜80% confluent at time oftransfection. Roughly 12 million cells were in a 10 cm dish at time of transfection. […] The DNA was comprised of a mixture (per 10 cm dish) containing 3 ug AAK1/HA/pIRES (full length human, NCBI accession no. NP_055726.2), 45 μg Flag/AP2MI/pcDNA (full length human), and 1.5 ml OPTI-MEM. The Lipofectamine 2000 is made up of a mixture (per 10 cm dish) containing 144 μl Lipofectamine 2000 and 1.5 ml OPTI-MEM. Each mixture was transferred to individual 15 ml tubes and incubated at RT for 5 minutes, and then the two mixes were combined and incubated at RT for 20 minutes. Growth media was then aspirated from each 10 cm plate and replaced with 10 ml of DMEM+10% FBS (no GPS). Finally, 3 ml DNA/Lipofectamine mix was added to each 10 cm dish and mix gently followed by incubate of plate overnight at 37° C. and 5% CO2.
On day three, compounds were diluted in 100% DMSO at 1000× final concentration, followed by 3-fold serial dilutions for a total of 5 concentrations tested. Four compounds were tested per 10 cm dish. One ul of each compound dilution was then pipetted into a deep-well, 96-well plate, followed by addition of 500 μl DMEM+0.5% FBS into each well for a 2× final concentration of each compound. Cells were resuspended in a 10 cm dish by simple pipetting (HEK293 cells come off the plate that easy at this point) and then transferred to a 50 ml conical tube and pelleted by centrifugation at 1000 rpm for 5 min. Cell pellets were then resuspended in 2.75 ml DMEM+0.5% FBS per 10 cm dish and 100 μl of cell suspension transferred into each well of 96-well TC plate. Finally, 100 μl of 2× compound diluted in DMEM+0.5% FBS was then added into wells containing cell suspension for a 1× final concentration. Plates were then incubated at 37° C. and 5% CO2 for 3 hours followed by transferring of cell suspensions from each well into 12-tube PCR strips. The PCR strips were spun in a tip rack at 1000 rpm for 5 minutes to pellet cells and media was then removed by pipetting without disturbing the cell pellet.
Five ul of 10× NuPage Sample Reducing Agent (with 50 mM DTT) was to each sample followed by heat denaturing at 70 C for 10 min on PCR machine. […] For controls, 2 ng of phospho-mu2 or 20 ng mu2/Flag proteins were loaded in the last well of each gel. After SDS-PAGE, samples on each gel were transferred to PVDF membrane using an iBlot and membranes were blocked for one hour in TBST+5% milk, followed by wash 3× for 5-10 min with TBST.
Finally, the camera was set up to take a picture every 30 seconds for 10 minutes and the best image saved for each blot with no saturated signal (when the signal is saturated, the bands will be highlighted red). A volume analysis on each band was performed to obtain density values. Percent inhibition was calculated for each sample by first normalizing to total Mu2 expression levels and then comparing to 0% and 100% controls. IC50 values were then calculated using Excel fitting software.
In general terms: In western blotting, separated proteins are transferred to a membrane and probed.

Where [3] appears, read: phospho-mu2, given as IC50 range.
[4] abbreviates: phospho-mu2 normalized to total Mu2.

T2 sequence (Q2M2I8 1-822 limits assumed): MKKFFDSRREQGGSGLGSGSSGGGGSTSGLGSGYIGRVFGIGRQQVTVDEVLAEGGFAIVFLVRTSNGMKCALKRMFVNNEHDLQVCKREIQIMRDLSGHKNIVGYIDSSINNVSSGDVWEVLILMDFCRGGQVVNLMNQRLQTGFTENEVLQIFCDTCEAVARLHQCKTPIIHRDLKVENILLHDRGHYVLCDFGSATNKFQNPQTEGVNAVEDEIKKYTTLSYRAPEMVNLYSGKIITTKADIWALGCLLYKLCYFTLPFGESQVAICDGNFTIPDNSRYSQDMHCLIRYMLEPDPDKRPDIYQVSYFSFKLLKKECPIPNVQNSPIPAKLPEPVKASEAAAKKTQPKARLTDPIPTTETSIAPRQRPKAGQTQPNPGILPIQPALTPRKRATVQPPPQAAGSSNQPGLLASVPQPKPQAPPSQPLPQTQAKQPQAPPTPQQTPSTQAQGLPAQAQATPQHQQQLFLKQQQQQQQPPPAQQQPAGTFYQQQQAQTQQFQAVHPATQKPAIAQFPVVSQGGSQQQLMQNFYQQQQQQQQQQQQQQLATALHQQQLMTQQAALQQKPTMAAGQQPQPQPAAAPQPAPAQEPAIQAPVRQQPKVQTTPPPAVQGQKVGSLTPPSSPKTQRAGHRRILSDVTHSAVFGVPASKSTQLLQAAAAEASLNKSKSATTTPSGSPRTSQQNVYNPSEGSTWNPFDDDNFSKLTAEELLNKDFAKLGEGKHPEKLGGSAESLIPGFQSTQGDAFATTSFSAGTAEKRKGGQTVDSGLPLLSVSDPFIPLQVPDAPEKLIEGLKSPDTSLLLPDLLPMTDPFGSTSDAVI
T1 sequence (Q2M2I8 whole entry): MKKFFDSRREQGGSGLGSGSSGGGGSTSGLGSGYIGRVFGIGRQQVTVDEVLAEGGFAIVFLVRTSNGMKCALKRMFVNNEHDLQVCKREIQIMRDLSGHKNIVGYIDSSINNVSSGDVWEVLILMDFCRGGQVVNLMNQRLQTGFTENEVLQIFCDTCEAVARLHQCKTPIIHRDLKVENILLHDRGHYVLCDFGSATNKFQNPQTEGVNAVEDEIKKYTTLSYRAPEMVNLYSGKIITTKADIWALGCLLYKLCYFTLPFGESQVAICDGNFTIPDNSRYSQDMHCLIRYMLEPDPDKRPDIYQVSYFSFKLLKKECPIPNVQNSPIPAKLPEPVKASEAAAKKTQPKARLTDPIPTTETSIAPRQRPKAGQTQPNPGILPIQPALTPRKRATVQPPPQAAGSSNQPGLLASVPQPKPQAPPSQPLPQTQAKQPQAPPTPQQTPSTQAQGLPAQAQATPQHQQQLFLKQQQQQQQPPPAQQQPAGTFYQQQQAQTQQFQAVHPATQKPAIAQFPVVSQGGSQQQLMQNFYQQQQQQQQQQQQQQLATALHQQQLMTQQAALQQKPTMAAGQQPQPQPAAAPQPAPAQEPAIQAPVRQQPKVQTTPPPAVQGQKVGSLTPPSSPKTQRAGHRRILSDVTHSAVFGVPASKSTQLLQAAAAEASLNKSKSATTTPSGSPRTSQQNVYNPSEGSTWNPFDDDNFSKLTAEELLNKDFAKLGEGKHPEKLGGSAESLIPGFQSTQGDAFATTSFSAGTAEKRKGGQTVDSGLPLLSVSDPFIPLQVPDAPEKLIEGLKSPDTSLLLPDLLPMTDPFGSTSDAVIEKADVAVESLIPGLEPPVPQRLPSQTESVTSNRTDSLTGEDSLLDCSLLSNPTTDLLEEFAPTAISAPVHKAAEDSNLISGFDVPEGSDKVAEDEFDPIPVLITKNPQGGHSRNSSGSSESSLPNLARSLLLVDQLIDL

For the molecule `Cc1nccc2c1c(=O)n(C)c1cc(OCC(N)CC(F)(F)F)c(Br)cc21` (single isomer, unassigned) [Example 138, 8-(2-amino-4,4,4-trifluorobutoxy)-9-bromo-4,6-dimethylbenzo[c][2,7]naphthyridin-5(6H)-one], the IC50 fell in the range of 1 to 10 nM in assay [1] (given as IC50 range) and 10 to 100 nM in assay [2] (setting [3]).

In the case of `Cc1nccc2c1c(=O)n(C)c1cc(OCC(N)CC(F)(F)F)c(Br)cc21` (single isomer, unassigned) [Example 139, 8-(2-amino-4,4,4-trifluorobutoxy)-9-bromo-4,6-dimethylbenzo[c][2,7]naphthyridin-5(6H)-one], the IC50 in assay [1] (given as IC50 range) is under 1 nM; in assay [2] (setting [3]), 1 to 10 nM.

For `Cc1nccc2c1c(=O)n(C)c1cc(OC[C@@H](N)CC(C)C)c(-c3ccccn3)cc21` [Example 86, (S)-8-((2-amino-4-methylpentyl)oxy)-4,6-dimethyl-9-(pyridin-2-yl)benzo[c][2,7]naphthyridin-5(6H)-one], the IC50 in assay [1] (given as IC50 range) and in assay [2] (setting [3]) was 10 to 100 nM each time.

Regarding `CC(C)C[C@H](N)COc1cc2[nH]c(=O)c3cnccc3c2cc1Br` [Example 108, (S)-8-((2-amino-4-methylpentyl)oxy)-9-bromobenzo[c][2,7]naphthyridin-5(6H)-one], the IC50 in assay [1] (given as IC50 range) and in assay [2] (setting [3]) was 1 to 10 nM in each case.

Turning to `Cc1cc2c(cc1OC[C@@H](N)CC(C)C)[nH]c(=O)c1cnccc12` [Example 109, (S)-8-((2-amino-4-methylpentyl)oxy)-9-methylbenzo[c][2,7]naphthyridin-5(6H)-one], the IC50 in assay [1] (given as IC50 range) and in assay [2] (setting [3]) was 1 to 10 nM in each case.

On to `Cn1c(=O)c2cnccc2c2cc(Br)c(OCC(N)CCC(F)(F)F)cc21` (centres unmarked) [Example 113, 8-((2-amino-5,5,5-trifluoropentyl)oxy)-9-bromo-6-methylbenzo[c][2,7]naphthyridin-5(6H)-one], for which the IC50 in assay [1] (given as IC50 range) and in assay [2] (setting [3]) was 1 to 10 nM in each case.

For the molecule `Cn1c(=O)c2cnccc2c2cc(-c3cnco3)c(OCC(N)CCC(F)(F)F)cc21` (centres unmarked) [Example 114, 8-((2-amino-5,5,5-trifluoropentyl)oxy)-6-methyl-9-(oxazol-5-yl)benzo[c][2,7]naphthyridin-5(6H)-one], the IC50 in assay [1] (given as IC50 range) lay in the range of 1 to 10 nM; in assay [2] (setting [3]) it was 10 to 100 nM.

Take `Cn1c(=O)c2cnccc2c2cc(Cl)c(OCC(N)CCC(F)(F)F)cc21` (centres unmarked) [Example 115, 8-((2-amino-5,5,5-trifluoropentyl)oxy)-9-chloro-6-methylbenzo[c][2,7]naphthyridin-5(6H)-one]: the IC50 in assay [1] (given as IC50 range) and in assay [2] (setting [3]) was 1 to 10 nM each time.

In the case of `Cn1c(=O)c2cnccc2c2cc(Cl)c(OCC(N)CCC(F)(F)F)cc21` (centres unmarked) [Example 116, 8-((2-amino-5,5,5-trifluoropentyl)oxy)-9-chloro-6-methylbenzo[c][2,7]naphthyridin-5(6H)-one], the IC50 in assay [1] (given as IC50 range) and in assay [2] (setting [3]) was 10 to 100 nM throughout.

Regarding `Cn1c(=O)c2cnccc2c2cc(Cl)c(OCC(N)CCC(F)(F)F)cc21` (centres unmarked) [Example 117, 8-((2-amino-5,5,5-trifluoropentyl)oxy)-9-chloro-6-methylbenzo[c][2,7]naphthyridin-5(6H)-one], the IC50 in assay [1] (given as IC50 range) and in assay [2] (setting [3]) was 1 to 10 nM each time.

As to `Cn1c(=O)c2c(N)nccc2c2ccc(OCC(N)CCC(F)(F)F)cc21` (centres unmarked) [Example 118, 4-amino-8-((2-amino-5,5,5-trifluoropentyl)oxy)-6-methylbenzo[c][2,7]naphthyridin-5(6H)-one], the figures for the IC50 in assay [1] (given as IC50 range) and in assay [2] (setting [3]) were 1 to 10 nM and 10 to 100 nM, respectively.

As for `Cn1c(=O)c2c(N)nccc2c2ccc(OCC(N)CCC(F)(F)F)cc21` (centres unmarked) [Example 119, 4-amino-8-((2-amino-5,5,5-trifluoropentyl)oxy)-6-methylbenzo[c][2,7]naphthyridin-5(6H)-one], the concentration for half-maximal inhibition (IC50) in assay [2] (setting [3]) lay within 1 to 10 nM.

In the case of `Cn1c(=O)c2c(N)nccc2c2ccc(OCC(N)CCC(F)(F)F)cc21` (centres unmarked) [Example 120, 4-amino-8-((2-amino-5,5,5-trifluropentyl)oxy)-6-methylbenzo[c][2,7]naphthyridin-5(6H)-one], the IC50 in assay [2] (setting [3]) fell in the range of 1 to 10 nM.

Take `CC(C)C[C@H](N)COc1cc2c(cc1C(F)F)c1ccncc1c(=O)n2C` [Example 121, (S)-8-((2-amino-4-methylpentyl)oxy)-9-(difluoromethyl)-6-methylbenzo[c][2,7]naphthyridin-5(6H)-one]: the IC50 in assay [1] (given as IC50 range) and in assay [2] (setting [3]) was 1 to 10 nM throughout.

For `Cc1nccc2c1c(=O)n(C)c1cc(OC[C@@H](N)CC(C)C)c(Br)cc21` [Example 122, (S)-8-((2-amino-4-methylpentyl)oxy)-9-bromo-4,6-dimethylbenzo[c][2,7]naphthyridin-5(6H)-one], the IC50 in assay [1] (given as IC50 range) and in assay [2] (setting [3]) was 1 to 10 nM each time.

As for `Cn1c(=O)c2cnccc2c2cc(C#N)c(OCC(N)CCC(F)(F)F)cc21` (centres unmarked) [Example 126, 8-((2-amino-5,5,5-trifluoropentyl)oxy)-6-methyl-5-oxo-5,6-dihydrobenzo[c][2,7]naphthyridine-9-carbonitrile], the IC50 was determined as 16 nM in assay [1] (3 hours at room temperature) and 56 nM in assay [2] (setting [4]).

For `Cc1nccc2c1c(=O)n(C)c1cc(OC[C@@H](N)CC(C)C)c(C(C)C)cc21` [Example 129, (S)-8-((2-amino-4-methylpentyl)oxy)-9-isopropyl-4,6-dimethylbenzo[c][2,7]naphthyridin-5(6H)-one], the IC50 in assay [1] (given as IC50 range) and in assay [2] (setting [3]) was 1 to 10 nM in each case.

In the case of `Cc1nccc2c1c(=O)n(C)c1cc(OC[C@H](N)CC(C)C)c(Br)cc21` [Example 133, (R)-8-((2-amino-4-methylpentyl)oxy)-9-bromo-4,6-dimethylbenzo[c][2,7]naphthyridin-5(6H)-one], the IC50 is 0.4 nM in assay [1] (3 hours at room temperature) and 2.3 nM in assay [2] (setting [4]).

On to `Cn1c(=O)c2cnccc2c2cc(Br)c(OCC(N)CC(F)(F)F)cc21` (centres unmarked) [Example 140, 8-(2-amino-4,4,4-trifluorobutoxy)-9-bromo-6-methylbenzo[c][2,7]naphthyridin-5(6H)-one], for which the IC50 in assay [1] (given as IC50 range) lay in the range of 1 to 10 nM; in assay [2] (setting [3]) it was 10 to 100 nM.

As for `Cn1c(=O)c2cnccc2c2cc(Cl)c(OCC(N)CC(F)(F)F)cc21` (centres unmarked) [Example 141, 8-(2-amino-4,4,4-trifluorobutoxy)-9-chloro-6-methylbenzo[c][2,7]naphthyridin-5(6H)-one], the IC50 in assay [1] (given as IC50 range) is 1 to 10 nM; in assay [2] (setting [3]), 10 to 100 nM.

Regarding `CC(C)C[C@H](N)COc1cc2[nH]c(=O)c3cnccc3c2cc1Cl` [Example 142, (S)-8-((2-amino-4-methylpentyl)oxy)-9-chlorobenzo[c][2,7]naphthyridin-5(6H)-one], the IC50 in assay [1] (given as IC50 range) is under 1 nM; in assay [2] (setting [3]), 1 to 10 nM.

Take `Cc1nccc2c1c(=O)n(CCO)c1cc(OC[C@@H](N)CC(C)C)c(Br)cc21` [Example 143, (S)-8-((2-amino-4-methylpentyl)oxy)-9-bromo-6-(2-hydroxyethyl)-4-methylbenzo[c][2,7]naphthyridin-5(6H)-one]: the IC50 in assay [1] (given as IC50 range) and in assay [2] (setting [3]) was 1 to 10 nM each time.

Regarding `CNC(=O)Nc1nccc2c1c(=O)n(C)c1cc(OC[C@@H](N)CC(C)C)c(F)cc21` [Example 145, (S)-1-(8-((2-amino-4-methylpentyl)oxy)-9-fluoro-6-methyl-5-oxo-5,6-dihydrobenzo[c][2,7]naphthyridin-4-yl)-3-methylurea], the IC50 in assay [1] (given as IC50 range) and in assay [2] (setting [3]) was 10 to 100 nM throughout.
